{"source": "ChEMBL document CHEMBL5649166", "about": "“RIP3 induces apoptosis independent of pronecrotic kinase activity” (Mol Cell, 2014)", "key": {"[1]": {"biological_target": "Tyrosine-protein kinase JAK1 (Homo sapiens) (UniProt P23458)", "sequence (P23458 whole entry)": "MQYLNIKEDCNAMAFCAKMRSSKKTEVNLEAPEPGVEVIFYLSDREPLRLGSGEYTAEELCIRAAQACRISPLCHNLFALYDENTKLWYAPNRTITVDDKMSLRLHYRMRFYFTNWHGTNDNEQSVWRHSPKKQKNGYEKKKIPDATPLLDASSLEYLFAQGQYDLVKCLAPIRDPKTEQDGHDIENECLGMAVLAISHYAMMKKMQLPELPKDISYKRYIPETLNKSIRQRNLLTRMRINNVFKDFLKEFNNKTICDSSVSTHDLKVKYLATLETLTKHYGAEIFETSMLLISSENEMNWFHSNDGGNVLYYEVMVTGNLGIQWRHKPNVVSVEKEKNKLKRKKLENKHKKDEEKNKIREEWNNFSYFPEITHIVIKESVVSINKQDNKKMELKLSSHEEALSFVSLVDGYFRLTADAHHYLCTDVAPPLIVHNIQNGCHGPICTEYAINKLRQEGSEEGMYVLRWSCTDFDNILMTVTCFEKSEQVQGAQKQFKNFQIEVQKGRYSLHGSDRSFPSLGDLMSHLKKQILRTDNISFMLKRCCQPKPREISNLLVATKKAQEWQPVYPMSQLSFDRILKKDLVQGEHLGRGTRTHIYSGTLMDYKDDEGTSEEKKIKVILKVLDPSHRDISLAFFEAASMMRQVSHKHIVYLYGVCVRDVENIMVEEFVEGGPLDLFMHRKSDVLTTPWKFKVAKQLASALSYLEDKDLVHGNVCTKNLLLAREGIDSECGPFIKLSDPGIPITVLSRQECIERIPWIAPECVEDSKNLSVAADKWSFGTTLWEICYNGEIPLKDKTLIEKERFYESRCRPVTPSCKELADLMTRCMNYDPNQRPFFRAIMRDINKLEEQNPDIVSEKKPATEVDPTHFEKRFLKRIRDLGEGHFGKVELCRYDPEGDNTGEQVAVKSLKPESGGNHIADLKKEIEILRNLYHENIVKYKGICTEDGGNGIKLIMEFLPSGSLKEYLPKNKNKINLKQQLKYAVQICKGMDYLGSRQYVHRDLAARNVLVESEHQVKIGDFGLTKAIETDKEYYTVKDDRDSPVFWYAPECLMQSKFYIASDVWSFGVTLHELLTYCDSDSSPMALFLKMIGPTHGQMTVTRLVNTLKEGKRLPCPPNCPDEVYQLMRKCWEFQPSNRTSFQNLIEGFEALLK", "experiment": "Inhibition of human JAK1 using poly[Glu:Tyr] (4:1) as substrate at 1 uM in presence of 32P-ATP by Hotspot assay relative to control; values are per cent of control"}, "[2]": {"biological_target": "Serine/threonine-protein kinase MARK1 (Homo sapiens) (UniProt Q9P0L2)", "experiment": "Inhibition of human MARK1 using KKKVSRSGLYRSPSMPENLNRPR as substrate at 1 uM in presence of 32P-ATP by Hotspot assay relative to control; values are per cent of control"}, "[3]": {"biological_target": "Mitogen-activated protein kinase 1 (Homo sapiens) (UniProt P28482)", "sequence (P28482 whole entry)": "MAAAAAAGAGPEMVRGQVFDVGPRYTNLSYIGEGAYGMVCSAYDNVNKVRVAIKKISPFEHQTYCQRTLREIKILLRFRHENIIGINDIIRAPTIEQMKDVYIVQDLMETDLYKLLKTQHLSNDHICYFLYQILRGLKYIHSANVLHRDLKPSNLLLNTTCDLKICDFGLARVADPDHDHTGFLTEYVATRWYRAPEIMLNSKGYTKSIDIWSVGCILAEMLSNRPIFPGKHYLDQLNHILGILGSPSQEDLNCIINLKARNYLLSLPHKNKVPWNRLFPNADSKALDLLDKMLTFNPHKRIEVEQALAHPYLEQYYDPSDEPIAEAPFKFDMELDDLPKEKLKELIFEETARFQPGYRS", "experiment": "Inhibition of human ERK2/MAPK1 using myelin basic protein as substrate at 1 uM in presence of 32P-ATP by Hotspot assay relative to control; values are per cent of control"}, "[4]": {"biological_target": "Calcium/calmodulin-dependent protein kinase type II subunit delta (Homo sapiens) (UniProt Q13557)", "sequence (Q13557 whole entry)": "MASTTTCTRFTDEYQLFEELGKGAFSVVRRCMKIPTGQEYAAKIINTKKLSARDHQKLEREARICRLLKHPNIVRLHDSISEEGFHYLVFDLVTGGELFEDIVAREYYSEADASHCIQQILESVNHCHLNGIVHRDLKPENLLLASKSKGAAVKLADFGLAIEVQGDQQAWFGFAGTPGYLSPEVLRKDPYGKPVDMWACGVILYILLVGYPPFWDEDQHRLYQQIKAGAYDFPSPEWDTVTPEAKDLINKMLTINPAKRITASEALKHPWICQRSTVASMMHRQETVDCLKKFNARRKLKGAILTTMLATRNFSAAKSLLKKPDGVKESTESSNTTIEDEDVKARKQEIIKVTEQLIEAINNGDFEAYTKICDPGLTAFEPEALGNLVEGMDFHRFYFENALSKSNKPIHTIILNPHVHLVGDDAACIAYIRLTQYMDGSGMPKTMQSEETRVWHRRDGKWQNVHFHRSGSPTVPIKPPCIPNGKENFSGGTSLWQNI", "experiment": "Inhibition of human CAMK2d using KKLNRTLSFAEPG as substrate at 1 uM in presence of 32P-ATP by Hotspot assay relative to control; values are per cent of control"}, "[5]": {"biological_target": "Protein kinase C delta type (Homo sapiens) (UniProt Q05655)", "experiment": "Inhibition of human PKCd using ERMRPRKRQGSVRRRV as substrate at 1 uM in presence of 32P-ATP by Hotspot assay relative to control; values are per cent of control"}, "[6]": {"biological_target": "T1, Ephrin type-A receptor 1 (Homo sapiens) (UniProt P21709)", "T1 sequence (whole entry)": "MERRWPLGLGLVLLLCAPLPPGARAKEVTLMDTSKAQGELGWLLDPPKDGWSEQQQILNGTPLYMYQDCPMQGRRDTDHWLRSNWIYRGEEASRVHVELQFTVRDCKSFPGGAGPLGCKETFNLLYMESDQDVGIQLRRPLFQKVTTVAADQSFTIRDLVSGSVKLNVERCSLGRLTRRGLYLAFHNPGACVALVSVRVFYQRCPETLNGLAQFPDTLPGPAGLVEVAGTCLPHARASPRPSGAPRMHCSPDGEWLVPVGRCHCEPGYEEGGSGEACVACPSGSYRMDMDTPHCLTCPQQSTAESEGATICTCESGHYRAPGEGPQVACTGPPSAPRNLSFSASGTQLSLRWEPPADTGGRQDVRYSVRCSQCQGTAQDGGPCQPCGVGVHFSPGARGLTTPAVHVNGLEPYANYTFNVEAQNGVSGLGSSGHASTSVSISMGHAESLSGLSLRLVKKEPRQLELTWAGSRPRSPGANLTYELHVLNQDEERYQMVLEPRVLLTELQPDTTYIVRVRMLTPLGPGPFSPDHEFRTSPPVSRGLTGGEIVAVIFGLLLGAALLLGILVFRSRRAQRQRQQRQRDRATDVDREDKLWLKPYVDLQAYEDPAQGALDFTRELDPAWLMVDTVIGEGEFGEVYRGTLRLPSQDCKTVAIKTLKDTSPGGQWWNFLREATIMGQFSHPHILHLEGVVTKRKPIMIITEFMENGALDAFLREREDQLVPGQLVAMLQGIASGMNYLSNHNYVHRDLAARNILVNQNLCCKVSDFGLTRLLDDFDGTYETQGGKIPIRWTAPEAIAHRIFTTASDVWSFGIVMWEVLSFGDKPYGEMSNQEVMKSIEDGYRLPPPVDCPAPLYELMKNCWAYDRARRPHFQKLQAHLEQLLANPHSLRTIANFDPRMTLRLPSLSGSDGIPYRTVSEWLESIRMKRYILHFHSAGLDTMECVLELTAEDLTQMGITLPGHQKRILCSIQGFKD", "experiment": "Residual activity of human EPHA1 using poly[Glu:Tyr] (4:1) as substrate at 1 uM in presence of 32P-ATP by Hotspot assay relative to control"}, "[7]": {"biological_target": "NT-3 growth factor receptor (Homo sapiens) (UniProt Q16288)", "sequence (Q16288 32-839 limits assumed)": "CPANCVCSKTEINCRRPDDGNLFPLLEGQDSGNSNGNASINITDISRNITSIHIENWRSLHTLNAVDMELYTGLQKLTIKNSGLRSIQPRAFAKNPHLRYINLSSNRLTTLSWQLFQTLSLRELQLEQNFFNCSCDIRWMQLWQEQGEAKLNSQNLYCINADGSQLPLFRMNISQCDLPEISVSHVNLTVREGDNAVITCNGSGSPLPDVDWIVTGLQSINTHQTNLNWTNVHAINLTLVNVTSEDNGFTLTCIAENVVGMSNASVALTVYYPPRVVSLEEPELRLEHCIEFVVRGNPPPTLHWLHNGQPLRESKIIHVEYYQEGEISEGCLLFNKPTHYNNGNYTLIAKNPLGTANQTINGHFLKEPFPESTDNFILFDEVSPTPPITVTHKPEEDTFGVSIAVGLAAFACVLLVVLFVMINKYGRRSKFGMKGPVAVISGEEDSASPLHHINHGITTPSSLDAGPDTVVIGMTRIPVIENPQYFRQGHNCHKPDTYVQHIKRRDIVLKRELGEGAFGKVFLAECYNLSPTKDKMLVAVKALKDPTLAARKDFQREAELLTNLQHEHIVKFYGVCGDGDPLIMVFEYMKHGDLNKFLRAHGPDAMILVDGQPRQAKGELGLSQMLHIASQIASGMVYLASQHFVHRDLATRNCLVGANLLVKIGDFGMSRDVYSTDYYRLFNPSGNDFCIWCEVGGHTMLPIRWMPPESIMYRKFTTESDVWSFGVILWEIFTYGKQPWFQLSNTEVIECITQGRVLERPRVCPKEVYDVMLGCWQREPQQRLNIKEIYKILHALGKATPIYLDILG", "experiment": "Inhibition of human TRKC using poly[Glu:Tyr] (4:1) as substrate at 1 uM in presence of 32P-ATP by Hotspot assay relative to control; values are per cent of control"}, "[8]": {"biological_target": "Serine/threonine-protein kinase PLK2 (Homo sapiens) (UniProt Q9NYY3)", "sequence (Q9NYY3 whole entry, looked up)": "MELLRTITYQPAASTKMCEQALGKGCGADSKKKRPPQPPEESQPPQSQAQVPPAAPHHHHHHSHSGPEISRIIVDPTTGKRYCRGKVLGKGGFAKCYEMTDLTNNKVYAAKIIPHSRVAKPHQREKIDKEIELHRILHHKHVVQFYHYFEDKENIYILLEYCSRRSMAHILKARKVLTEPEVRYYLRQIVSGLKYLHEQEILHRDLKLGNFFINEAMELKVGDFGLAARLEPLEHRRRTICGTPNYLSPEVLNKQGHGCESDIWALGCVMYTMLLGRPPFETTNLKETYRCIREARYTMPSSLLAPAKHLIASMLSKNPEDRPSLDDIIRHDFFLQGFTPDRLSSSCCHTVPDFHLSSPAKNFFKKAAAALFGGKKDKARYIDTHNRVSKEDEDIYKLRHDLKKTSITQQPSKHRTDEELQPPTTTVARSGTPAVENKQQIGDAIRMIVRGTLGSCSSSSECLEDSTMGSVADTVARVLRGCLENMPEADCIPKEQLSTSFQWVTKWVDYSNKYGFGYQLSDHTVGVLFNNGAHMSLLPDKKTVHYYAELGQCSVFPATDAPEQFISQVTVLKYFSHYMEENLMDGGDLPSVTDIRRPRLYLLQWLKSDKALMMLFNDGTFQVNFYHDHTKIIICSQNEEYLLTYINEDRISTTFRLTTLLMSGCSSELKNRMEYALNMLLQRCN", "experiment": "Inhibition of human PLK2 using casein as substrate at 1 uM in presence of 32P-ATP by Hotspot assay relative to control; values are per cent of control"}, "[9]": {"biological_target": "Protein-tyrosine kinase 2-beta (Homo sapiens) (UniProt Q14289)", "sequence (Q14289 whole entry, looked up)": "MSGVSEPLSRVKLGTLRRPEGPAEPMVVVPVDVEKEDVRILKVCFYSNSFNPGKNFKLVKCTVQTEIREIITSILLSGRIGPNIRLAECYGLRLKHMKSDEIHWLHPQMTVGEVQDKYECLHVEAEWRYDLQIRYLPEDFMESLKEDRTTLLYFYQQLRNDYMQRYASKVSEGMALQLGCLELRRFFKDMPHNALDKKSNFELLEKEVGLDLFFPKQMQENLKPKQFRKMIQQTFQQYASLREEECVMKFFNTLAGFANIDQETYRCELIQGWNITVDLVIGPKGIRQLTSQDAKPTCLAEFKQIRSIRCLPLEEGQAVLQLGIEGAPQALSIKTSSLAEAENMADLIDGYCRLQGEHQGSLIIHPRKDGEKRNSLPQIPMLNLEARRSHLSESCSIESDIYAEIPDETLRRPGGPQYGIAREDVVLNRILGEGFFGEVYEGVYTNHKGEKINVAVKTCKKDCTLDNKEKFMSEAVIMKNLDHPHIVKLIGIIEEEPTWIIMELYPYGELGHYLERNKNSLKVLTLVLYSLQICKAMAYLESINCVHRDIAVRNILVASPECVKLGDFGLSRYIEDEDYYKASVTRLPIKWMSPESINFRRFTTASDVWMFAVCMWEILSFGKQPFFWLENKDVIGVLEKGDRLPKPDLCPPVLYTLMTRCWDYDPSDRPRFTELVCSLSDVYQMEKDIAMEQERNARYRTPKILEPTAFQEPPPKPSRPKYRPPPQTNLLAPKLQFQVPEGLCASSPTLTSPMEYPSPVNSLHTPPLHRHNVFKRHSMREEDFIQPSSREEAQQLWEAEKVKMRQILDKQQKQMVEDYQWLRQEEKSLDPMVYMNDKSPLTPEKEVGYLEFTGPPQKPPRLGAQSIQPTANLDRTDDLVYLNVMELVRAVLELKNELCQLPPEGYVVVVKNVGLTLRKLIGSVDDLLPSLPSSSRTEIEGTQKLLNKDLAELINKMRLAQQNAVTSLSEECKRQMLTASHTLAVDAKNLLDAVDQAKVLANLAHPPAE", "experiment": "Inhibition of human PYK2 using poly[Glu:Tyr] (4:1) as substrate at 1 uM in presence of 32P-ATP by Hotspot assay relative to control; values are per cent of control"}}}
{"smiles": "CC(C)S(=O)(=O)c1ccc2nccc(Nc3ccc4scnc4c3)c2c1", "values": [{"measurement": "residual activity", "setting": "[1]", "value": 94.9, "unit": "%"}, {"measurement": "residual activity", "setting": "[2]", "value": 96.3, "unit": "%"}, {"measurement": "residual activity", "setting": "[3]", "value": 94.6, "unit": "%"}, {"measurement": "residual activity", "setting": "[4]", "value": 98.1, "unit": "%"}, {"measurement": "residual activity", "setting": "[5]", "value": 86.3, "unit": "%"}, {"measurement": "residual activity", "setting": "[6]", "value": 53.9, "unit": "%"}, {"measurement": "residual activity", "setting": "[7]", "value": 87.2, "unit": "%"}, {"measurement": "residual activity", "setting": "[8]", "value": 94.7, "unit": "%"}, {"measurement": "residual activity", "setting": "[9]", "value": 95.5, "unit": "%"}]}
{"smiles": "Cc1cc(-c2cnc(N)c3c(-c4ccc5scnc5c4)csc23)n(C)n1", "values": [{"measurement": "residual activity", "setting": "[1]", "value": 88.3, "unit": "%"}, {"measurement": "residual activity", "setting": "[2]", "value": 103, "unit": "%"}, {"measurement": "residual activity", "setting": "[3]", "value": 109, "unit": "%"}, {"measurement": "residual activity", "setting": "[4]", "value": 104, "unit": "%"}, {"measurement": "residual activity", "setting": "[5]", "value": 60.4, "unit": "%"}, {"measurement": "residual activity", "setting": "[6]", "value": 56.5, "unit": "%"}, {"measurement": "residual activity", "setting": "[7]", "value": 95.3, "unit": "%"}, {"measurement": "residual activity", "setting": "[8]", "value": 106, "unit": "%"}, {"measurement": "residual activity", "setting": "[9]", "value": 105, "unit": "%"}]}
{"smiles": "CNC(=O)c1ccc2c(c1)ncn2-c1ccc(CC(=O)OC(C)(C)C)cc1", "values": [{"measurement": "residual activity", "setting": "[1]", "value": 98.2, "unit": "%"}, {"measurement": "residual activity", "setting": "[2]", "value": 96.2, "unit": "%"}, {"measurement": "residual activity", "setting": "[3]", "value": 99.8, "unit": "%"}, {"measurement": "residual activity", "setting": "[4]", "value": 97.3, "unit": "%"}, {"measurement": "residual activity", "setting": "[5]", "value": 90.1, "unit": "%"}, {"measurement": "residual activity", "setting": "[6]", "value": 84.8, "unit": "%"}, {"measurement": "residual activity", "setting": "[7]", "value": 98, "unit": "%"}, {"measurement": "residual activity", "setting": "[8]", "value": 99.1, "unit": "%"}, {"measurement": "residual activity", "setting": "[9]", "value": 96.4, "unit": "%"}]}
